# Test system: primary rat mixed cortical cells
# Experiment: In vitro myelination assay (MBP positive myelin strands, fold myelin pixels above background)
# Type: cell-based
# Settings: Rattus norvegicus, relative to baseline of no added compound, read-out: Fold myelin pixels above background; for fold induction at 1 µM: 1.0 μM compound; for fold induction at 10 µM: 10.0 μM compound
# In short: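 Compounds at 1.0 and 10.0 μM were incubated 14 days with dissociated P1 rat cortical cells, which were then fixed and immunostained for MBP. Myelination was scored as fold MBP myelin pixels per well over the no-compound baseline.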
smiles,measurement,value
"Cc1cc(Nc2ncn(-c3cnccn3)n2)cc(N2CCC(C3COC3)CC2)c1 [Compound 521, N-[3-methyl-5-[4-(oxetan-3-yl)-1-piperidyl]phenyl]-1-pyrazin-2-yl-1,2,4-triazol-3-amine]",fold induction at 1 µM,100 to 1000
same,fold induction at 10 µM,100 to 1000
"Cc1cc(Nc2ncn(-c3cccc(F)c3)n2)cc(N2CCC(C3COC3)CC2)c1 [Compound 522, 1-(3-fluorophenyl)-N-[3-methyl-5-[4-(oxetan-3-yl)-1-piperidyl]phenyl]-1,2,4-triazol-3-amine]",fold induction at 1 µM,100 to 1000
same,fold induction at 10 µM,100 to 1000
"CC(C)c1cc(Nc2ncn(-c3cccc(F)c3)n2)cc(N2CCN(C3COC3)CC2)c1 [Compound 523, 1-(3-fluorophenyl)-N-[3-isopropyl-5-[4-(oxetan-3-yl)piperazin-1-yl]phenyl]-1,2,4-triazol-3-amine]",fold induction at 1 µM,100 to 1000
same,fold induction at 10 µM,≤ 1
"Fc1cccc(-n2cnc(Nc3cc(C(F)F)cc(N4CCN(C5COC5)CC4)n3)n2)c1 [Compound 525, 4-(difluoromethyl)-N-[1-(3-fluorophenyl)-1,2,4-triazol-3-yl]-6-[4-(oxetan-3-yl)piperazin-1-yl]pyridin-2-amine]",fold induction at 1 µM,100 to 1000
same,fold induction at 10 µM,10 to 100
"FC(F)c1cc(Nc2ncn(-c3ccccc3)n2)nc(N2CCN(C3COC3)CC2)c1 [Compound 526, 4-(difluoromethyl)-6-[4-(oxetan-3-yl)piperazin-1-yl]-N-(1-phenyl-1,2,4-triazol-3-yl)pyridin-2-amine]",fold induction at 1 µM,100 to 1000
same,fold induction at 10 µM,10 to 100
"Cc1cc(Nc2ncn(-c3cc(F)cc(F)c3)n2)cc(N2CC3CC(C2)O3)c1 [Compound 527, 1-(3,5-difluorophenyl)-N-[3-methyl-5-(6-oxa-3-azabicyclo[3.1.1]heptan-3-yl)phenyl]-1,2,4-triazol-3-amine]",fold induction at 1 µM,100 to 1000
same,fold induction at 10 µM,100 to 1000
"Cc1cc(Nc2ncn(-c3cc(F)cc(F)c3)n2)cc(N2CCC3OCCC3C2)c1 (stereo not drawn) [Compound 528, N-[3-(3,3a,4,6,7,7a-hexahydro-2H-furo[3,2-c]pyridin-5-yl)-5-methyl-phenyl]-1-(3,5-difluorophenyl)-1,2,4-triazol-3-amine]",fold induction at 1 µM,100 to 1000
same,fold induction at 10 µM,100 to 1000
"Cc1cc(Nc2ncn(-c3cc(F)cc(F)c3)n2)nc(N2CCNCC2)c1 [Compound 529, N-[1-(3,5-difluorophenyl)-1,2,4-triazol-3-yl]-4-methyl-6-piperazin-1-yl-pyridin-2-amine]",fold induction at 1 µM,1 to 10
same,fold induction at 10 µM,≤ 1
"Cc1cc(Nc2ncn(-c3cc(F)cc(F)c3)n2)cc(N2CCN([C@H]3CCOC3)CC2)c1 [Compound 530, 1-(3,5-difluorophenyl)-N-[3-methyl-5-[4-[(3S)-tetrahydrofuran-3-yl]piperazin-1-yl]phenyl]-1,2,4-triazol-3-amine]",fold induction at 1 µM,100 to 1000
same,fold induction at 10 µM,100 to 1000
"Cc1cc(Nc2ncn(-c3cc(F)cc(F)c3)n2)cc(N2CCN([C@@H]3CCOC3)CC2)c1 [Compound 531, 1-(3,5-difluorophenyl)-N-[3-methyl-5-[4-[(3R)-tetrahydrofuran-3-yl]piperazin-1-yl]phenyl]-1,2,4-triazol-3-amine]",fold induction at 1 µM,100 to 1000
same,fold induction at 10 µM,100 to 1000
"FC(F)c1cc(Nc2ncn(-c3ccccn3)n2)nc(N2CCN(C3COC3)CC2)c1 [Compound 532, 4-(difluoromethyl)-6-[4-(oxetan-3-yl)piperazin-1-yl]-N-[1-(2-pyridyl)-1,2,4-triazol-3-yl]pyridin-2-amine]",fold induction at 1 µM,10 to 100
same,fold induction at 10 µM,10 to 100
"Cc1cc(Nc2ncn(-c3cc(F)cc(F)c3)n2)nc(N2CCN(C(=O)OC(C)(C)C)CC2)c1 [Compound 533, tert-butyl 4-[6-[[1-(3,5-difluorophenyl)-1,2,4-triazol-3-yl]amino]-4-methyl-2-pyridyl]piperazine-1-carboxylate]",fold induction at 1 µM,10 to 100
same,fold induction at 10 µM,1 to 10
"CC(=O)OCC(C)(CO)N1CCN(c2cc(C)cc(Nc3ncn(-c4cc(F)cc(F)c4)n3)c2)CC1 (stereo not drawn) [Compound 534, [2-[4-[3-[[1-(3,5-difluorophenyl)-1,2,4-triazol-3-yl]amino]-5-methyl-phenyl]piperazin-1-yl]-3-hydroxy-2-methyl-propyl] acetate]",fold induction at 1 µM,1 to 10
same,fold induction at 10 µM,≤ 1
"Cc1cc(Nc2ncn(-c3cncnc3)n2)cc(N2CCN(C3COC3)CC2)c1 [Compound 535, N-[3-methyl-5-[4-(oxetan-3-yl)piperazin-1-yl]phenyl]-1-pyrimidin-5-yl-1,2,4-triazol-3-amine]",fold induction at 1 µM,1 to 10
same,fold induction at 10 µM,1 to 10
"CC(C)c1cc(Nc2ncn(-c3cnccn3)n2)cc(N2CCN(C3COC3)CC2)c1 [Compound 536, N-[3-isopropyl-5-[4-(oxetan-3-yl)piperazin-1-yl]phenyl]-1-pyrazin-2-yl-1,2,4-triazol-3-amine]",fold induction at 1 µM,100 to 1000
same,fold induction at 10 µM,100 to 1000
"Cc1cc(Nc2ncn(-c3cc(F)cc(F)c3)n2)nc(N2CC(N3CCOCC3)C2)c1 [Compound 537, N-[1-(3,5-difluorophenyl)-1,2,4-triazol-3-yl]-4-methyl-6-(3-morpholinoazetidin-1-yl)pyridin-2-amine]",fold induction at 1 µM,1 to 10
same,fold induction at 10 µM,≤ 1
"Cc1cc(Nc2ncn(-c3cccc(F)c3)n2)nc(N2CC(N3CCOCC3)C2)c1 [Compound 538, N-[1-(3-fluorophenyl)-1,2,4-triazol-3-yl]-4-methyl-6-(3-morpholinoazetidin-1-yl)pyridin-2-amine]",fold induction at 1 µM,1 to 10
same,fold induction at 10 µM,1 to 10
"c1cnc(-n2cnc(Nc3cc(C4CC4)cc(N4CC(N5CCOCC5)C4)c3)n2)cn1 [Compound 539, N-[3-cyclopropyl-5-(3-morpholinoazetidin-1-yl)phenyl]-1-pyrazin-2-yl-1,2,4-triazol-3-amine]",fold induction at 1 µM,10 to 100
same,fold induction at 10 µM,10 to 100
"Fc1cc(F)cc(-n2cnc(Nc3cc(C(F)(F)F)cc(N4CCN(C5COC5)CC4)n3)n2)c1 [Compound 540, N-[1-(3,5-difluorophenyl)-1,2,4-triazol-3-yl]-6-[4-(oxetan-3-yl)piperazin-1-yl]-4-(trifluoromethyl)pyridin-2-amine]",fold induction at 1 µM,10 to 100
same,fold induction at 10 µM,100 to 1000
"Cc1cc(Nc2ncn(-c3cc(F)cc(F)c3)n2)cc(N2CCCC3(COC3)C2)c1 [Compound 541, 1-(3,5-difluorophenyl)-N-[3-methyl-5-(2-oxa-8-azaspiro[3.5]nonan-8-yl)phenyl]-1,2,4-triazol-3-amine]",fold induction at 1 µM,≤ 1
same,fold induction at 10 µM,1 to 10
"Cc1cc(Nc2ncn(-c3cc(F)cc(F)c3)n2)cc(N2CC(N3CCCC3=O)C2)c1 [Compound 542, 1-[1-[3-[[1-(3,5-difluorophenyl)-1,2,4-triazol-3-yl]amino]-5-methyl-phenyl]azetidin-3-yl]pyrrolidin-2-one]",fold induction at 1 µM,10 to 100
same,fold induction at 10 µM,10 to 100
"Cc1cc(Nc2ncn(-c3cc(F)cc(F)c3)n2)cc(N2CCOC3(CCC3)C2)c1 [Compound 543, 1-(3,5-difluorophenyl)-N-[3-methyl-5-(9-oxa-6-azaspiro[3.5]nonan-6-yl)phenyl]-1,2,4-triazol-3-amine]",fold induction at 1 µM,1 to 10
same,fold induction at 10 µM,1 to 10
"CCc1cc(Nc2ncn(-c3cncnc3)n2)cc(N2CC(N3CCOCC3)C2)c1 [Compound 544, N-[3-ethyl-5-(3-morpholinoazetidin-1-yl)phenyl]-1-pyrimidin-5-yl-1,2,4-triazol-3-amine]",fold induction at 1 µM,1 to 10
same,fold induction at 10 µM,10 to 100
"Fc1cccc(-n2cnc(Nc3cc(C(F)(F)F)cc(N4CCN(C5COC5)CC4)n3)n2)c1 [Compound 545, N-[1-(3-fluorophenyl)-1,2,4-triazol-3-yl]-6-[4-(oxetan-3-yl)piperazin-1-yl]-4-(trifluoromethyl)pyridin-2-amine]",fold induction at 1 µM,10 to 100
same,fold induction at 10 µM,10 to 100
"Fc1ccc(-n2cnc(Nc3cc(C(F)(F)F)cc(N4CCN(C5COC5)CC4)n3)n2)cc1F [Compound 546, N-[1-(3,4-difluorophenyl)-1,2,4-triazol-3-yl]-6-[4-(oxetan-3-yl)piperazin-1-yl]-4-(trifluoromethyl)pyridin-2-amine]",fold induction at 1 µM,1 to 10
same,fold induction at 10 µM,10 to 100
"FC(F)(F)c1cc(Nc2ncn(-c3ccccc3)n2)nc(N2CCN(C3COC3)CC2)c1 [Compound 547, 6-[4-(oxetan-3-yl)piperazin-1-yl]-N-(1-phenyl-1,2,4-triazol-3-yl)-4-(trifluoromethyl)pyridin-2-amine]",fold induction at 1 µM,100 to 1000
same,fold induction at 10 µM,10 to 100
"FC(F)(F)c1cc(Nc2ncn(-c3ccccn3)n2)nc(N2CCN(C3COC3)CC2)c1 [Compound 548, 6-[4-(oxetan-3-yl)piperazin-1-yl]-N-[1-(2-pyridyl)-1,2,4-triazol-3-yl]-4-(trifluoromethyl)pyridin-2-amine]",fold induction at 1 µM,1 to 10
same,fold induction at 10 µM,1 to 10
"CCc1cc(Nc2ncn(-c3cncnc3)n2)cc(N2CCN(C3COC3)CC2)c1 [Compound 549, N-[3-ethyl-5-[4-(oxetan-3-yl)piperazin-1-yl]phenyl]-1-pyrimidin-5-yl-1,2,4-triazol-3-amine]",fold induction at 1 µM,1 to 10
same,fold induction at 10 µM,10 to 100
"CC(C)(C)c1cc(Nc2ncn(-c3cncnc3)n2)cc(N2CCN(C3COC3)CC2)c1 [Compound 550, N-[3-tert-butyl-5-[4-(oxetan-3-yl)piperazin-1-yl]phenyl]-1-pyrimidin-5-yl-1,2,4-triazol-3-amine]",fold induction at 1 µM,10 to 100
same,fold induction at 10 µM,10 to 100
"Cc1cc(Nc2ncn(-c3cc(F)cc(F)c3)n2)cc(N2CC(C)(O)C2)c1 [Compound 551, 1-[3-[[1-(3,5-difluorophenyl)-1,2,4-triazol-3-yl]amino]-5-methyl-phenyl]-3-methyl-azetidin-3-ol]",fold induction at 1 µM,100 to 1000
same,fold induction at 10 µM,10 to 100
